This assay concerns the target 5-hydroxytryptamine receptor 5B (Rattus norvegicus, UniProt P35365).
Chain of 5-hydroxytryptamine receptor 5B (P35365 whole entry): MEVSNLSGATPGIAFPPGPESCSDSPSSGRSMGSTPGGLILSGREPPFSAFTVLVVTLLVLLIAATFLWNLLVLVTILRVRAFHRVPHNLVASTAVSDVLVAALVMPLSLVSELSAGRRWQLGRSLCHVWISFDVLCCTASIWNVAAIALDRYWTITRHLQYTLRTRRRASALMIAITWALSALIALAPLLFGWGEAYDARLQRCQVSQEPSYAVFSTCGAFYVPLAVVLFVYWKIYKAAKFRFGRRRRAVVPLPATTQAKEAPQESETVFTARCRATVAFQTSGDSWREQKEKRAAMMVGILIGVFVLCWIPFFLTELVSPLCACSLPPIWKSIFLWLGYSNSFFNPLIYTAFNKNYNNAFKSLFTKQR
Take `CC(C)NCC(O)COc1cccc2[nH]ccc12` (stereo not given) [LB-46]: affinity was put at a Ki of 1000 nM.

For `NCCc1c[nH]c2ccc(OCC(=O)NCC(=O)N[C@@H](Cc3ccc(O)cc3)C(N)=O)cc12`, the Ki came to 582 nM. The same measure for `CN1CC(C(=O)N[C@]2(C)O[C@@]3(O)C4CCCN4C(=O)[C@H](Cc4ccccc4)N3C2=O)CC2c3cccc4[nH]cc(c34)CC21` (stereo partly drawn) [7-Methyl-4,6,6a,7,8,9,10,10a-octahydro-indolo[4,3-fg]quinoline-9-carboxylic acid ((2R,5S,10bS)-5-benzyl-10b-hydroxy-2-methyl-3,6-dioxo-octahydro-oxazolo[3,2-a]pyrrolo[2,1-c]pyrazin-2-yl)-amide]: 31 nM. The same measure for `CNS(=O)(=O)Cc1ccc2[nH]cc(CCN(C)C)c2c1` [Sumax]: 807 nM; for `CCCN(CCC)C1CCc2cccc(O)c2C1` (stereo not given): 46 nM; for `CC[C@@H](CO)NC(=O)[C@@H]1C=C2c3cccc4c3c(cn4C)C[C@H]2N(C)C1`: 40.7 nM. The same measure for `O=C(CCCN1CCC2(CC1)C(=O)NCN2c1ccccc1)c1ccc(F)cc1` [8-[4-(4-fluorophenyl)-4-oxidanylidene-butyl]-1-phenyl-1,3,8-triazaspiro[4.5]decan-4-one]: 1000 nM. In turn, `CCN(CC)C(=O)[C@@H]1C=C2c3cccc4[nH]cc(c34)C[C@H]2N(C)C1` [(4R,7R)-N,N-diethyl-6-methyl-6,11-diazatetracyclo[7.6.1.0^{2,7}.0^{12,16}]hexadeca-1(16),2,9,12,14-pentaene-4-carboxamide] displayed an inhibition constant (Ki) of 3.2 nM. The compound `CN1CCC(=C2c3ccccc3C=Cc3ccccc32)CC1` [5-(1-methylpiperidylidene-4)-5H-dibenzo(a,d)cyclopheptene] gave an inhibition constant Ki of 117 nM. As for `O=C(c1ccc(F)cc1)C1CCN(CCn2c(=O)[nH]c3ccccc3c2=O)CC1` [3-(2-{4-[(4-fluorophenyl)carbonyl]piperidin-1-yl}ethyl)-1,2,3,4-tetrahydroquinazoline-2,4-dione], the Ki turned out to be 1000 nM. This Ki lies about 8.5-fold higher than the previous one.

By Ki is commonly meant the dissociation constant of the complex between target and ligand, obtained from inhibition or displacement.

(Values after BindingDB's records for doi:10.1016/0014-5793(93)80368-5 (University of Heidelberg Zmbh, 1993).)
